Laboratory results taken from patent publication US12458680B2, “Reconstitutable teverelix-TFA composition” (Antev Limited, priority 2018, dated 2025).
Square brackets hold non-standard residues; d marks the D form. Peptide text beside a SMILES is read from it. dPhe(4-Cl) = N[C@H](Cc1ccc(Cl)cc1)C(=O)O; d2Nal = N[C@H](Cc1ccc2ccccc2c1)C(=O)O; d(hCit) = NC(=O)NCCCC[C@@H](N)C(=O)O; Lys(iPr) = CC(C)NCCCC[C@H](N)C(=O)O; d3Pal = N[C@H](Cc1cccnc1)C(=O)O

Assays:
[1] = Plasma concentration of teverelix in patients versus weight; assay type: in vivo; conditions: different patients
[2] = Injection site reaction after subcutaneous and/or intramuscular injection; assay type: in vivo; conditions: 30-100 mg/ml, 0.4-1.6 ml

Compound: CC(=O)N[C@H](Cc1ccc2ccccc2c1)C(=O)N[C@H](Cc1ccc(Cl)cc1)C(=O)N[C@H](Cc1cccnc1)C(=O)N[C@@H](CO)C(=O)N[C@@H](Cc1ccc(O)cc1)C(=O)N[C@H](CCCCNC(N)=O)C(=O)N[C@@H](CC(C)C)C(=O)N[C@@H](CCCCNC(C)C)C(=O)N1CCC[C@H]1C(=O)N[C@H](C)C(N)=O [teverelix, Ac-D-Nal-D-pClPhe-D-Pal-Ser-Tyr-D-Hci-Leu-Lys (iPr)-Pro-D-Ala-NH2] (Ac-[d2Nal][dPhe(4-Cl)][d3Pal]SY[d(hCit)]L[Lys(iPr)]P[dA]-NH2)
- dependence of plasma concentration of teverelix on patients weight [1]: substantially independent of the patients weight
- injection site reaction [2]: mild injection site reaction
